# Target: T1, MGFR portion of the MUC1 receptor (His-PSMGFR) and ligand(s) in T47D lysate (Homo sapiens, UniProt P15941, R1131P)
# T1 construct: made in house; host or cells: chemical synthesis (synthetic peptide)
# T1 sequence (P15941 with tags, fused parts or gaps R1131P): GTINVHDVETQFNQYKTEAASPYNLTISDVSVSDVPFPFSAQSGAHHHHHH
# Test: Colloid color-change ligand binding assay with or without enzyme inhibitor
# Format: biochemical
# Settings: T47D lysate treated with inhibitor, final concentration 3 mM
# Protocol: To test the hypothesis that the MGFR portion of the MUC1 receptor is enzymatically modified prior to binding to its ligand(s), the drug screening assay described in Example 5a was performed in the presence or absence of an enzyme inhibitor, PMSF (phenylmethylsulfonyl fluoride; Sigma chemical Co. St. Louis Mo., USA). T47D cells, which are breast tumor cells that aberrantly express MUC1, were grown to 70% confluency, treated with trypsin to detach from the flask, and pelleted by centrifugation. A lysate was prepared as follows from the pellets of two T75 flasks. Cell pellets were resuspended in 300 μL phosphate buffer (10 mM sodium phosphate, 100 mM NaCl, pH 7.4). The lysate was divided into two parts. One aliquot of lysate was used as is. To the second aliquot was added 9 μL of a 100 mM stock solution to achieve a final concentration 3 mM. The lysates were frozen and thawed four times with 15 seconds of vigorous mixing after each thawing. Lysates were then pelleted by centrifugation and the supernatant collected. Lysates were diluted by adding 6.2 ml of phosphate buffer. The drug screening assay was then performed as described in Example 5a, with the exception that no drugs were added. Rather the ability of the ligand(s) in the lysate to bind to the MGFR in a multimeric way, which would result in the solution color to change to blue, was tested. […]
smiles,measurement,value
"O=S(=O)(F)Cc1ccccc1 [PMSF, phenylmethylsulfonyl fluoride]",Solution color change (ligand binding to His-PSMGFR colloids),did not change color and remained pink
